In patent US20060025398A1, “Topical antiviral therapeutic and prophylactic treatment of adenoviruses and their associated diseases” (priority 2003, published 2006):
Entries after “also recorded” stand apart in the source; their conditions may differ.

What was measured:
[1] = test system: Human Adenovirus Type 5; experiment: Adenovirus recovery from tear film of infected rabbit eyes, plaque assay on HeLa cell monolayers; assay type: in vivo
Procedure: (§1) Clinical results and plaque assay viral titers of three CTC-96 treatment/dosing regimens of rabbit eyes infected with Human adenovirus, Adenovirus type 5 (Ad5), were evaluated. On “Day 1” animals were infected with Human Adenovirus Type 5 by the installation of 10^6 pfu adenovirus according to our protocol of conjunctival and corneal scarification for the induction of Keratoconjunctivitis. […] Animals were then randomized and the following experimental groups were treated with CTC-96 or placebo in a double blind experiment: • (1) Placebo (diluent alone), 9×/day, for 21 days: (4 rabbits). • (2) CTC-96 50 μg/ml, 9×/day, for 21 days: (4 rabbits). • (3) CTC-96 50 μg/ml, 6×/day, for 21 days: (4 rabbits). • (4) C T W 25 μg/ml, 6×/day, for 21 bays: (4 rabbits).
The efficacy of CTC-96 treatment of rabbit eyes infected with Human adenovirus, Adenovirus type 5 (Ad5), was also evaluated by adenovirus recovery from tear film cultures adsorbed onto confluent HeLa cell monolayers. […] On day 8 post-inoculation treatment with eye drops containing CTC-96 or placebo was initiated. Adenovirus recovery from tear film was evaluated by plaque assay on confluent HeLa cell monolayers. Data are presented as Average±SD.

[2] = test system: Adenovirus types 1, 2, 3, 4, 5, and 7; experiment: CTC-96 efficacy against several adenovirus serotypes in HeLa cells in tissue culture (viral titers at each drug concentration); assay type: cell-based, Human Adenoviruses; conditions: drug overlaid after 1 hour adsorption, 24 hours, 500, 250, 100, 50, 10 μg/ml
Procedure: Since these human viruses cannot be grown in animal models, this provides an excellent indication of the effectiveness of CTC-96 against a broad spectrum of Adenovirus types. To determine CTC-96 efficacy against several types of serotypes of adevirus the following procedure was followed:
1. Hela cells were confluent at the time of inoculation.
2. Virus dilutions were prepared from the known titers of the stock viruses (4×10^5 pfu/ml; 4×10^4/0.1 ml) of Ad1 Kmetz, Ad2 Wolf, Ad3 Holyfield, Ad4 Harris, Ad7a Joseph, ATCC. This virus inoculation yielded a virus infection with an m.o.i. (multiplicity of infection) of approximately 1.0.
3. 100 µl of each Ad serotype were inoculated onto cultures containing Hela cells.
4. During the adsorption period, Doxovir concentrations of 500, 250, 100, 50, 10, and 0 μg/ml were prepared in culture medium according to the dilution protocol.
5. Virus was adsorbed at 37° C. in a 5% CO2 water-vapor atmosphere for 1 hour.
6. […]
13. Viral titers were determined at each drug concentration. […]
(§2) Anti-adenovirus activity of CTC-96 was evaluated by standard cell culture using HeLa cells, a human cervical carcinoma immortalized cell line (the usual host for laboratory grade adenovirus) and anti-viral plaque-reduction assays.

[3] = test system: human Adenovirus type 5 (Ad5); experiment: Virus titers after exposure of Ad5 infected HeLa cells to CTC-96 (plaque assay); assay type: cell-based; conditions: Ad5 adsorbed onto HeLa monolayers 60 min, then CTC-96 for 24 hr
Procedure: Monolayers were then incubated for 24 hr at 37° C. and 5% CO2. Monolayers were then washed, scraped, sonicated, centrifuged and the supernatant serially diluted. These serial dilutions were plated onto indicator HeLa cell monolayers and adsorbed for 60 min, aspirated and a methylcellulose overlay placed over the cells, which were then incubated for 3 days at 37%. Cultures were counterstained with 1% methylene blue, allowed to dry and the plaques counted. Results am expressed as mean & SD (where error bars are not visible they are contained within data point).

[4] = test system: Human Adenovirus Type 5; experiment: CTC-96 treatment of Adenovirus induced keratoconjunctivitis in rabbit eyes, clinical grading by slit lamp microscopy; assay type: in vivo; conditions: for progression of disease severity: 21 days, from day 8 post-inoculation
Procedure: as §1
Clinical disease progression and resolution were evaluated by slit lamp microscopy on days 1, 3, 7, 10, 13, 18, 21, 24, 28 and 31 after initial drug dosing. The intensity of the keratitis was quantified using a clinical grading system (5).
The data In FIG. 3 were obtained as follows: rabbits were infected with Human Adenovirus Type 5 by the installation 10^6 pfu adenovirus according to our protocol of conjunctival and corneal scarification for the production of Keratoconjunctivitis. On day 8 post-inoculation treatment with eye drops containing CTC-96 or placebo was initiated. Animals were examined for stromal keratitis and scored by the corneal disease scale of Wander et al. (5). The following are the Criteria For Determination Of Conjunctival Disease: […]

[5] = test system: Adenovirus type 5 (Ad5); experiment: Adenovirus type 5 titers following direct exposure of the virus to CTC-96 prior to HeLa cell infection (plaque assay); assay type: cell-based; conditions: Ad5 incubated with CTC-96 at 37° C. for 60 minutes, diluted 500 fold, HeLa cells
Procedure: as §2
The data graphically depicted in FIG. 1 were obtained as follows: varying concentrations of the CTC-96 were mixed with concentrated Human Adenovirus, [Adenovirus type 5 (Ad5)] and incubated at 37° C. for 60 minutes. Aliquots were then diluted 500 fold into growth medium. Hela cells were exposed to 100 μl of the diluted material to initiate infection. These monolayers were incubated for 24 hours at 37% and 5% CO2 and then washed, scraped, sonicated, centrifuged and the supernatant serially diluted. These serial dilutions were plated onto indicator HeLa cell monolayers and adsorbed for 60 min, aspirated and a methycellulose overlay placed over the cells, which were then incubated for 3 days at 37%. Cultures were counterstained with 1% methylene blue, allowed to dry and the plaques counted. Results are expressed as mean±SD (where error bars are not visible they are contained within data point).

CC(/C=C(/C)[O-])=NCCN=C(C)/C=C(/C)[O-].Cc1ncc[nH]1.Cc1ncc[nH]1.[Br-].[Co+3] [CTC-96]
no detectable virus in the eye ([1]; 50 μg/ml 6 times a day): ≤ 13 days
no detectable virus in the eye ([1]; 50 μg/ml 9 times a day): ≤ 13 days
efficacy against Adenovirus types in culture [2]: effective against types 1, 2, 3, 4, 5, and 7; also recorded: efficacy against Adenovirus types 1, 2, 3, 4, 5, and 7
effect on viral growth in Adenovirus infected cells subsequently exposed to the drug [3]: inhibition of viral growth
complete resolution of clinical disease (day after initial drug dosing) ([4]; 50 μg/ml 6 times a day for 21 days): ≤ 21 days
complete resolution of clinical disease (day after initial drug dosing) ([4]; 50 μg/ml 9 times a day for 21 days): ≤ 21 days
progression of disease severity ([4]; topical eye drops 25 μg/ml, 6×/day): prevented progression of disease severity
progression of disease severity ([4]; topical eye drops 50 μg/ml, 6×/day or 9×/day): prevented progression of disease severity
effect on virus growth when virus is exposed to the drug prior to cell infection [5]: inhibitory (prophylactic) effect on growth
